In patent publication US8115031B2, “Anti-inflammatory quinic acid derivatives for oral administration” (priority 2007, dated 2012):
Like-named read-outs stand apart in the source and are kept apart here.

Tests used:
[1] = system: Gluconobacter oxydans membrane fraction (quinate dehydrogenase); assay: degradation by bacterial enzymes (Gluconobacter oxydans membrane fraction); assay type: in vitro ADME
Procedure: FIG. 11 is a graph illustrating the results of an assay to compare stability of analog KZ-41 with that of quinic acid (QA) to degradation by bacterial enzymes. Percentage of drug remaining is shown on the Y-axis and the time exposed to the enzymes is shown on the X-axis. Results for quinic acid are indicated by the diamonds (♦) and results for KZ-41 are indicated by the squares (▪).
Experiments involving Gluconobacter oxydans were performed as described by Adachi et al. (Adachi, O., et al., (2003) Biosci. Biotechnol. Biochem. 67: 2124-2131). […]
Samples were evaporated to dryness at 30° C. and reconstituted with […] of 1:1 (v/v) mixture of 0.5% ammonia in water and acetonitrile. […] The spray needle voltage was set at 5,000 V, with the turbo gas temperature set at 400° C., and the declustering potential set at 60 V. For this study, samples were analyzed using a Q1 scan for product ion identification, a product ion scan for characterization of metabolites or enzymatic products and by using multiple-reaction monitoring (MRM) for quantitation of QA. Quantitation was performed using one set of MRM transitions: parent QA ions (MH^−/191)® selective daughter ions m/z 127. […] The peak areas, peak ratios, linear regression, assayed concentrations, and other quantitative analysis calculations were conducted Sciex Analyst 1.4 software. […]

[2] = levels of compound after oral (PO) or intravenous (IV) administration; assay type: in vivo; details: PO vs IV, FIG. 12
Source text: FIG. 12 is a graph illustrating the levels of analog KZ-41 when provided orally (PO) or by intravenous administration (IV).
Quinic acids are, however, catabolized by enzymes produced by gut bacteria. In rats, less than 10% of an orally-administered dose of quinic acid is recovered. The inventors therefore set out to produce quinic acid derivatives that retain or improve the beneficial effects of quinic acid, while being effective for oral administration. […] The compounds they have synthesized are not catabolized by bacterial enzymes, but are water-soluble, stable at room temperature, and effective for producing anti-inflammatory effects. […] These properties make the compounds attractive options for therapeutic use as anti-inflammatory agents.

[3] = system: Gluconobacter oxydans membrane fraction (quinate dehydrogenase); details: three hours; previous results (Adachi et al. 2003); cited from earlier work
[4] = rats, oral; cited from earlier work
leukocyte populations = details: doxorubicin-induced leukopenia, rat; cited from earlier work

Molecule: CCCNC(=O)C1(O)CC(O)C(O)C(O)C1 (stereo not drawn) [KZ-41, 1,3,4,5-tetrahydroxy-cyclohexane-carboxylic acid propylamide]
- degradation by bacterial enzymes ([1]; enzymes produced by gut bacteria): not degraded
- levels of compound, oral compared with intravenous (IV) administration [2]: available for absorption into the circulation

Molecule: O=C(O)[C@]1(O)C[C@@H](O)[C@@H](O)[C@H](O)C1 [quinic acid]
- depletion of QA by G. oxydans membrane fraction [3]: complete depletion
- orally-administered dose recovered [4]: less than 10%
- degradation by bacterial enzymes [1]: degraded by enzymes produced by bacteria in the intestines

B1: Neupogen: a granulocyte colony stimulator commonly used to treat chemotherapy-induced leukopenia (protein, chains of the INN, looked up)
chain: MTPLGPASSLPQSFLLKCLEQVRKIQGDGAALQEKLCATYKLCHPEELVLLGHSLGIPWAPLSSCPSQALQLAGCLSQLHSGLFLYQGLLQALEGISPELGPTLDTLQLDVADFATTIWQQMEELGMAPALQPTQGAMPAFASAFQRRAGGVLVASHLQSFLEVSYRVLRHLAQP
- effect on leukocyte populations (leukocyte populations): increased only the neutrophil fraction
